Measurements reported in article PMC10518257 (Nature Cancer, 2023).
Several values for one entry are separate records, joined by “and”; a condition that tells them apart may be missing. Equal values may be shown once.

Assays:
[1] = Animal weight of tumor-bearing mice; conditions: for Animal Weight (g), Mean: Ba/F3-KIF5B::RET tumor-bearing mice (Ext. Data Fig 8i); for Animal Weight: individual animals
[2] = Transcellular transport study, apparent permeability; conditions: pig, LLC-PK1

CO[C@]1(C(=O)N[C@@H](C)c2ccc(-n3cc(F)cn3)nc2)CC[C@H](c2nc(C)cc(Nc3cc(C)[nH]n3)n2)CC1 [Pralsetinib]
Animal Weight, Mean ([1]; Ba/F3-KIF5B::RET G810R (Fig 8f), Pralsetinib 10 mg/kg BID, day 1): 26.74 g
Animal Weight, Mean ([1]; Ba/F3-KIF5B::RET G810R (Fig 8f), Pralsetinib 10 mg/kg BID, day 4): 26.42 g
Animal Weight, Mean ([1]; Ba/F3-KIF5B::RET G810R (Fig 8f), Pralsetinib 10 mg/kg BID, day 8): 25.72 g
Animal Weight, Mean ([1]; Ba/F3-KIF5B::RET G810R (Fig 8f), Pralsetinib 10 mg/kg BID, day 11): 26.48 g
Animal Weight, Mean ([1]; Ba/F3-KIF5B::RET G810R (Fig 8f), Pralsetinib 10 mg/kg BID, day 15): 26.66 g
Animal Weight, Mean ([1]; Ba/F3-KIF5B::RET G810R (Fig 8g), Pralsetinib 30 mg/kg BID, day 1): 25.3 g
Animal Weight, Mean ([1]; Ba/F3-KIF5B::RET G810R (Fig 8g), Pralsetinib 30 mg/kg BID, day 4): 26.8 g
Animal Weight, Mean ([1]; Ba/F3-KIF5B::RET G810R (Fig 8g), Pralsetinib 30 mg/kg BID, day 8): 26.6 g
Animal Weight, Mean ([1]; Ba/F3-KIF5B::RET G810R (Fig 8g), Pralsetinib 30 mg/kg BID, day 11): 25.3 g
Animal Weight, Mean ([1]; Ba/F3-KIF5B::RET G810R (Fig 8g), Pralsetinib 30 mg/kg BID, day 15): 26.0 g
Animal Weight (g), Mean ([1]; 3 mg/kg BID, day 1): 26.4 g
Animal Weight (g), Mean ([1]; 3 mg/kg BID, day 4): 26.5 g
Animal Weight (g), Mean ([1]; 3 mg/kg BID, day 8): 26.3 g
Animal Weight (g), Mean ([1]; 3 mg/kg BID, day 11): 27.3 g
Animal Weight (g), Mean ([1]; 3 mg/kg BID, day 15): 27.9 g
Animal Weight (g), Mean ([1]; 10 mg/kg BID, day 1): 26.2 g
Animal Weight (g), Mean ([1]; 10 mg/kg BID, day 4): 26.8 g
Animal Weight (g), Mean ([1]; 10 mg/kg BID, day 8): 26.6 g
Animal Weight (g), Mean ([1]; 10 mg/kg BID, day 11): 26.8 g
Animal Weight (g), Mean ([1]; 10 mg/kg BID, day 15): 27.7 g
Animal Weight (g), Mean ([1]; 30 mg/kg BID, day 1): 26.2 g
Animal Weight (g), Mean ([1]; 30 mg/kg BID, day 4): 26.3 g
Animal Weight (g), Mean ([1]; 30 mg/kg BID, day 8): 25.8 g
Animal Weight (g), Mean ([1]; 30 mg/kg BID, day 11): 26.9 g
Animal Weight (g), Mean ([1]; 30 mg/kg BID, day 15): 27.4 g
Animal Weight (g), Mean ([1]; 60 mg/kg BID, day 1): 25.8 g
Animal Weight (g), Mean ([1]; 60 mg/kg BID, day 4): 25.8 g
Animal Weight (g), Mean ([1]; 60 mg/kg BID, day 8): 25.6 g
Animal Weight (g), Mean ([1]; 60 mg/kg BID, day 11): 26.0 g
Animal Weight (g), Mean ([1]; 60 mg/kg BID, day 15): 26.0 g
Animal Weight ([1]; LUAD-0077AS1 PDX, Pralsetinib 30 mg/kg BID, treatment day 0): 23 g (2×) and 26 g (2×) and 21 g (2×) and 24 g and 25 g (2×) and 22 g
Animal Weight ([1]; LUAD-0077AS1 PDX, Pralsetinib 30 mg/kg BID, treatment day 4): 26 g (2×) and 23 g and 21 g (2×) and 24 g (2×) and 25 g (2×) and 22 g
Animal Weight ([1]; LUAD-0077AS1 PDX, Pralsetinib 30 mg/kg BID, treatment day 7): 26 g (2×) and 23 g and 21 g and 22 g (2×) and 25 g (2×) and 27 g and 24 g
Animal Weight ([1]; LUAD-0087AS2 PDX, Pralsetinib 30 mg/kg BID, treatment day 0): 28 g and 27 g (2×) and 23 g and 26 g
Animal Weight ([1]; LUAD-0087AS2 PDX, Pralsetinib 30 mg/kg BID, treatment day 3): 28 g and 27 g and 26 g and 24 g (2×)
Animal Weight ([1]; LUAD-0087AS2 PDX, Pralsetinib 30 mg/kg BID, treatment day 7): 28 g and 26 g (2×) and 24 g and 25 g
Animal Weight ([1]; LUAD-0087AS2 PDX, Pralsetinib 30 mg/kg BID, treatment day 10): 28 g and 27 g and 26 g and 25 g (2×)
Animal Weight ([1]; LUAD-0087AS2 PDX, Pralsetinib 30 mg/kg BID, treatment day 14): 29 g and 27 g and 26 g and 25 g (2×)
Animal Weight ([1]; LUAD-0087AS2 PDX, Pralsetinib 30 mg/kg BID, treatment day 17): 29 g and 25 g (3×) and 26 g
Animal Weight ([1]; LUAD-0087AS2 PDX, Pralsetinib 30 mg/kg BID, treatment day 21): 28 g and 24 g and 25 g (2×) and 26 g
Animal Weight ([1]; LUAD-0087AS2 PDX, Pralsetinib 30 mg/kg BID, treatment day 24): 28 g and 25 g (3×) and 26 g
Animal Weight ([1]; LUAD-0087AS2 PDX, Pralsetinib 30 mg/kg BID, treatment day 29): 28 g and 25 g (3×) and 26 g
Animal Weight ([1]; LUAD-0087AS2 PDX, Pralsetinib 30 mg/kg BID, treatment day 32): 29 g and 25 g (2×) and 26 g (2×)
Animal Weight ([1]; LUAD-0087AS2 PDX, Pralsetinib 30 mg/kg BID, treatment day 35): 29 g and 25 g (3×) and 26 g
Animal Weight ([1]; LUAD-0087AS2 PDX, Pralsetinib 30 mg/kg BID, treatment day 38): 25 g (3×) and 24 g and 26 g
Animal Weight ([1]; LUAD-0087AS2 PDX, Pralsetinib 30 mg/kg BID, treatment day 42): 28 g and 25 g (2×) and 26 g (2×)
Animal Weight ([1]; LUAD-0087AS2 PDX, Pralsetinib 30 mg/kg BID, treatment day 45): 28 g and 25 g (2×) and 26 g (2×)
Papp at 3 h, 1 μM [2]: 14.3 ×10⁻⁶ cm/s
